From US8158792B2, “Spiropiperidines for use as tryptase inhibitors” (Janssen Pharmaceutica N.V., priority 2007, dated 2012)
Counter-ions that a name gives are not always drawn.

What was measured:
[1] = target: human lung tryptase; test: β-Tryptase In-Vitro Enzyme Assay; type: biochemical; conditions: human lung tryptase 1 nM, substrate H-D-HHT-Ala-Arg-pNa 500 μM, pH 7.4, room temperature
Protocol: The β-tryptase assay was conducted with human lung tryptase (Cortex Biochem #CP3033) in an aqueous buffer (10 mM Tris, 10 mM Hepes, 150 mM NaCl, 0.1% PEG 8000, pH 7.4) using the chromogenic substrate H-D-HHT-Ala-Arg-pNa. […] Percent inhibition was calculated by comparing the initial reaction velocity of samples without inhibitor to those with inhibitor. The initial reaction velocities were analyzed using Microsoft Excel.

[2] = system: antigen-induced allergic sheep; test: Sheep Efficacy Model (antigen-induced allergic sheep asthma model); type: in vivo; conditions: 30 mg/kg BID oral gavage, two sheep
Protocol: The in vivo efficacy of Compound 3 was evaluated in antigen-induced allergic sheep, which is a well-characterized asthma model (Abraham, W. M. Pulmonary Pharmacol. 1989, 2, 33-40). Compound 3 was administered via oral gavage to two sheep previously shown to be allergic responders to inhaled Ascaris suum antigen (FIG. 1). The compound was given at a dose of 30 mg/kg, BID, on day 1, and again on day 2 at 2 h prior to antigen challenge and then 4 h after antigen challenge. Airway resistance (SRL) was monitored for 8 h post antigen challenge and airway hyper-reactivity to carbachol (PC400) was measured 24 h post antigen challenge.

[3] = system: guinea pig model of allergic asthma; test: Guinea Pig Efficacy Model (OVA allergic asthma); type: in vivo
Protocol: The in vivo efficacy of Compound 3 was evaluated in a guinea pig model of allergic asthma. In this model, guinea pigs were sensitized and challenged with chicken egg ovalbumin (OVA) according to the protocol of N. Smith and F. J. Johnson (Clin. Exp. Allergy 2005, 35, 522-530), with some slight modifications. Guinea pigs were sensitized with 80 mg of OVA and 80 mg of aluminum hydroxide administered intraperitoneally on day 0, then challenged with 0.03% OVA aerosol for 10 minutes on day 14. In the experiment measuring early phase pulmonary response (EAR), guinea pigs were challenged for an additional three minutes with 0.06% OVA aerosol. EAR was measured as enhanced pause (PenH) using BUXCO whole body plethysmography for 10 minutes immediately following the OVA aerosol challenge. The animals were then euthanized and assessed for bronchoalveolar lavage (BAL) immune cell counts 24 hours after aerosol challenge on day 15. Either Compound 3 in doses of 3, 10, and/or 30 mg/kg or vehicle were administered subcutaneously, 1-2 hours before and 4-6 hours after OVA aerosol challenge.

[4] = system: mild asthmatics; conditions: nebulized dry powder, 16 mild asthmatics, compared with placebo, cited from earlier work
[5] = 3, 10 and 30 mg/kg subcutaneously, 24 hours after OVA aerosol challenge

Row | SMILES | IC50 [1] [µM] | also measured
1 | NCc1ccc2c(c1)C1(CCN(C(=O)c3ccc(C#Cc4ccccc4)o3)CC1)CO2 (as salt: salt) [Cpd 3, 1-(5-phenylethynyl-furan-2-yl)carbonyl-5′-aminomethyl-spiro[piperidine-4,3′-(2H)-benzo[b]furan]] |  | melting point: 179 to 181 °C
2 | NCc1ccc2c(c1)C1(CCN(C(=O)c3ccc(C#Cc4ccccc4)o3)CC1)CO2 [Cpd 3, 1-(5-phenylethynyl-furan-2-yl)carbonyl-5′-aminomethyl-spiro[piperidine-4,3′-(2H)-benzo[b]furan]] | 0.0035 | acute early phase response (EP; 0-4 h) post antigen, specific airway resistance (SRL) [2]: did not effect a change; increase in airway hyper-reactivity to carbachol (PC400) at 24 h ([2]; 24 h post antigen challenge): completely blocked; late response (LP; 4-8 h post antigen), specific airway resistance (SRL) ([2]; inhaled Ascaris suum antigen challenge): completely blocked; reduction in BAL eosinophils ([3]; 30 mg/kg subcutaneously, 24 hours after OVA aerosol challenge): 66%; reduction in EAR as measured with whole body plethysmography (in PenH) ([3]; 30 mg/kg subcutaneously, relative to sensitized and challenged guinea pigs treated with vehicle): greater than 93%; eosinophilic BAL cell counts [3, 5]: dose-dependent reduction; total BAL cell counts [3, 5]: dose-dependent reduction
3 | NC(=O)[C@@H]1CCCN1C(=O)[C@H](CCCN=C(N)N)NC(=O)c1ccc2ccccc2c1O [APC-366] |  | mean maximum decrease of forced expiratory volume in one second for late airway hyperresponsiveness ([4]; ρ=0.007): 21%; improvement for the late airway response ([4]; ρ=0.012): 33%
4 | NCc1ccc2c(c1)C1(CCN(C(=O)c3cc(C#Cc4ccccc4)ccn3)CC1)CO2 [Cpd 152, 1-[4-phenylethynyl-pyridin-2-yl]carbonyl-5′-aminomethyl-spiro[piperidine-4,3′-(2H)-benzo[b]furan]] | 0.0023 | 
5 | NCc1ccc2c(c1)C1(CCN(C(=O)C3c4ccccc4Oc4ccccc43)CC1)CO2 [Cpd 292, 1-9H-xanthen-9-ylcarbonyl-5′-aminomethyl-spiro[piperidine-4,3′-(2H)-benzo[b]furan]] | 6.1 | 
6 | NCc1ccc2c(c1)C1(CCN(C(=O)C3CC(=O)c4ccccc43)CC1)CO2 (centres unmarked) [Cpd 287, 1-(3-oxo-indan-1-yl)carbonyl-5′-aminomethyl-spiro[piperidine-4,3′-(2H)-benzo[b]furan]] | 4.3 | 
7 | NCc1ccc2c(c1)C1(CCN(C(=O)c3ccc(Cl)cc3)CC1)CO2 [Cpd 44, 1-(4-chloro-phenyl)carbonyl-5′-aminomethyl-spiro[piperidine-4,3′-(2H)-benzo[b]furan]] | 0.23 | 
8 | CNNC(=O)CS(=O)(=O)N1CC2(CCN(C(=O)c3ccc(C#Cc4ccccc4)o3)CC2)c2cc(CN)ccc21 [Cpd 349, 1-(5-phenylethynyl-furan-2-yl)carbonyl-1′-(N′-methylhydrazino-carbonylmethyl)sulfonyl-5′-aminomethyl-spiro[piperidine-4,3′-(2H)-indole]] | 0.016 | 
9 | NCc1ccc2c(c1)C1(CCN(C(=O)c3cccc(-c4ccc5c(c4)OCO5)c3)CC1)CO2 [Cpd 20, 1-(3-benzodioxol-5-yl-phenyl)carbonyl-5′-aminomethyl-spiro[piperidine-4,3′-(2H)-benzo[b]furan]] | 0.14 | 
10 | Cc1cc(C(=O)NCc2ccc(C(=O)N3CCC4(CC3)COc3ccc(CN)cc34)o2)c(C)o1 [Cpd 156, 1-[5-(2,5-dimethyl-furan-3-yl-carbonylaminomethyl)-furan-2-yl]carbonyl-5′-aminomethyl-spiro[piperidine-4,3′-(2H)-benzo[b]furan]] | 0.13 | 
11 | NCc1ccc2c(c1)C1(CCN(C(=O)CCc3ccc4c(c3)OCO4)CC1)CO2 [Cpd 104, 1-(benzodioxol-5-ylethyl)carbonyl-5′-aminomethyl-spiro[piperidine-4,3′-(2H)-benzo[b]furan]] | 4.5 | 
12 | NCc1ccc2c(c1)C1(CCN(C(=O)/C=C/c3ccc(OCc4ccccc4)cc3)CC1)CO2 [Cpd 300, (E)-1-(4-benzyloxy-phenylethenyl)carbonyl-5′-aminomethyl-spiro[piperidine-4,3′-(2H)-benzo[b]furan]] | 1.5 | 
